According to US5985926A, “Method for inhibiting intracellular viral replication” (Cell Therapeutics, Inc., priority 1997, dated 1999):

Tested on: PA (phosphatidic acid) formation in tat-transfected and tar-transfected cells
Test: PA mass / myrPA formation in serum-stimulated EB293, 293tat and 293tar cells
Assay type: cell-based, human
Description: Transformed and serum-stimulated cells were measured for total PA mass according to the methods described herein. […] The columns in FIG. 18 represent: (1) EB293 cells plus serum, (2) EB293 cells plus serum plus CT3556 (10 μM.), (3) 293tat cells plus serum, (4) 293tat cells plus serum plus CT3556 (10 μM.), (5) 293tar cells plus serum, and (6) 293tar cells plus serum plus CT3556 (10 μM.).
This procedure begins with those cells that would be normally infected with a virus, such as a retrovirus. However, it is not necessary to utilize a cell line containing a retroviral genome, such as U1 cells. In view of the necessity to utilize containment facilities when using an infected cell line, it is preferable to utilize a macrophage cell line that is not infected. Examples of appropriate macrophage cell lines include, U937, THP1, U1, and P288s (available from standard sources, such as ATCC). The cells are stimulated with a stimulant with or without a candidate drug. Examples of stimulants include 3-5% serum, such as fetal calf serum, or tumor necrosis factor (TNF) (e.g., 20 ng/ml) both of which are standard laboratory reagents. After a time course (within 5 minutes, preferably within 1 minute), the cells are immersed in ice cold methanol to stop any cellular signaling reactions.
One must first quantitatively and qualitatively separate PAs from the other lipids found in serum by a chemical extraction of lipids and high performance liquid chromatography (HPLC) to separate and detect PAs. Chemical extraction can be accomplished, for example, by the method of Bligh et al. (Canadian J. Biochem. Physiol. 37:911-917, 1959) or that of Folch et al. (J. Biol. Chem. 226:497-509, 1957). Briefly, the method of Bligh et al. involves an organic extraction of lipids from biological tissue homogenates or fluids. One volume of sample and three volumes of methanol:chloroform (2:1) are vigorously shaken for 2 min. One volume of chloroform is added and then shaken vigorously for 30 sec. One volume of water is added and then shaken vigorously for 30 sec. The mixture is filtered and the upper aqueous layer is discarded. The lower organic layer contains a mixture of lipid classes. The method of Folch et al. involves the extraction of lipids from biological tissue homogenates or body fluids. One volume of sample plus 20 volumes of chloroform:methanol (2:1) are vigorously shaken for 2 min. The mixture is filtered and an amount of 0.1 N KCl equal to 20% of the extraction mixture volume is added and the mixture is shaken vigorously for 2 min. The aqueous and organic phases are allowed to separate. The upper aqueous layer is discarded. The lower organic layer contains a mixture of lipid classes. Free fatty acids and neutral lipids can be separated from phospholipids by normal phase high performance liquid chromatography (HPLC) by modifying the method of Van Kessel et al. (Biochim et Biophys Acta 486:524-530, 1977). This method involves separation of lipids into their major classes by normal phase (silica) high performance liquid chromatography (HPLC). A 5 micron, 25 cm×0.45 cm silica HPLC column is connected to a binary solvent delivery system followed with a UV detector. The lipid sample is injected on the column and a solvent gradient is run at 1.0 ml/min. […]
Transformed and serum-stimulated cells were measured for total PA mass according to the methods described herein. […]

CCCCCCCCNCC(O)CCCCCCCCCn1c(=O)c2c(ncn2C)n(C)c1=O (centres unmarked) [CT2576, 1-(11-octylamino-10-hydroxyundecyl)-3,7-dimethylxanthine]
inhibition of myrPA formation in stimulated cells (10 μM, tat-transfected cells stimulated with serum): inhibited myrPA formation in stimulated cells | total PA mass, dose response (EB293 cells with tat expression plasmid, serum, 0 to one minute (FIG. 20)): dose response relationship
